The structures appear in SMILES notation.

From US20100056508A1, “AMINE DERIVATIVES AND THEIR USE IN BETA-2-ADRENORECEPTOR MEDIATED DISEASES” (ASTRAZENECA AB, priority 2006, published 2010) come the findings set out here.

The experiment has as its target T1, recombinant human α1D receptor (Homo sapiens, UniProt P25100).
T1 construct: expressed in transfected cells; host or cells: human embryonic kidney 293 cells (HEK93 [sic]), membranes
T1 sequence (P25100 1-572): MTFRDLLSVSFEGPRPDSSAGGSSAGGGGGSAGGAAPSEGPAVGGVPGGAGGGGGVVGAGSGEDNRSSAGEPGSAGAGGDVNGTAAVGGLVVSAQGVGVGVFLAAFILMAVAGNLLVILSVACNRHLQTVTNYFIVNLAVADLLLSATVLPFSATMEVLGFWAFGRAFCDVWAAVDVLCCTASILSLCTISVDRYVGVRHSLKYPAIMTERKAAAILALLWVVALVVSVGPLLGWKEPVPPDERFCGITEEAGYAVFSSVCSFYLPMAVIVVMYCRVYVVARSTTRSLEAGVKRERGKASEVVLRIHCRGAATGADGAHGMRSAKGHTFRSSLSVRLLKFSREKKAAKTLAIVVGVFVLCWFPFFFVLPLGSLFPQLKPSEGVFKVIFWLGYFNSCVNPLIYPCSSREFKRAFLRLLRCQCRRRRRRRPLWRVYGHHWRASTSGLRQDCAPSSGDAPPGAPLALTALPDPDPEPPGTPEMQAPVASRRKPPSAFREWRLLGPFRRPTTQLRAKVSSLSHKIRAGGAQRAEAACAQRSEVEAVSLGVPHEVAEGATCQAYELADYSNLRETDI
Put plainly: Adrenergic α1D selectivity assay, [3H]-prazosin binding to membranes. Conditions: inhibition of [3H]-prazosin binding, HEK cell membranes, read-out: α1 bind pIC50 (converted). The method in brief: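 Competition binding on HEK293 membranes with recombinant human α1D receptor, 0.3 nM [3H]-prazosin, 50 mM HEPES/1 mM EDTA pH 7.4, 2 h at room temperature; filtration and scintillation counting. Non-specific binding defined with 10 μM BMY7378. pIC50 from four-parameter logistic fit of specific-binding inhibition.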
Consider `O=C(CCOCCc1ccccc1)N(CCNCCc1ccc(O)c2[nH]c(=O)ccc12)C1CCCCC1` [Example 2, N-Cyclohexyl-N-(2-(2-(8-hydroxy-2-oxo-1,2-dihydroquinolin-5-yl)ethylamino)ethyl)-3-phenethoxypropanamide], for which the IC50 is 794 nM.

For `O=C(CCNCCc1cccc(Cl)c1)N(CCNCCc1ccc(O)c2[nH]c(=O)ccc12)C1CCCCCC1` [Example 3, 3-(3-Chlorophenethylamino)-N-cycloheptyl-N-(2-(2-(8-hydroxy-2-oxo-1,2-dihydroquinolin-5-yl)ethylamino)ethyl)propanamide bis(trifluoroacetate)], the IC50 was 79.4 nM.

For the compound `O=C(CCNCCc1ccc(Cl)cc1)N(CCNCCc1ccc(O)c2[nH]c(=O)ccc12)C1CCCCCC1` [Example 4, 3-(4-Chlorophenethylamino)-N-cycloheptyl-N-(2-(2-(8-hydroxy-2-oxo-1,2-dihydroquinolin-5-yl)ethylamino)ethyl)propanamide bis(trifluoroacetate)], the IC50 was 79.4 nM.

With `CCOc1cccc(CCNCCC(=O)N(CCNCCc2ccc(O)c3[nH]c(=O)ccc23)C2CCCCCC2)c1` [Example 11, N-Cycloheptyl-3-(3-ethoxyphenethylamino)-N-(2-(2-(8-hydroxy-2-oxo-1,2-dihydroquinolin-5-yl)ethylamino)ethyl)propanamide bis(trifluoroacetate)], the IC50 is 316 nM. To `O=C(CCNCCc1cccc(Cl)c1)N(CCNCCc1ccc(O)c2[nH]c(=O)ccc12)C1CCCCC1` [Example 13, 3-(3-Chlorophenethylamino)-N-cyclohexyl-N-(2-(2-(8-hydroxy-2-oxo-1,2-dihydroquinolin-5-yl)ethylamino)ethyl)propanamide bis(trifluoroacetate)] belongs 79.4 nM; to `O=C(CCNCCc1ccc(Cl)cc1)N(CCNCCc1ccc(O)c2[nH]c(=O)ccc12)C1CCCCC1` [Example 14, 3-(4-Chlorophenethylamino)-N-cyclohexyl-N-(2-(2-(8-hydroxy-2-oxo-1,2-dihydroquinolin-5-yl)ethylamino)ethyl)propanamide bis(trifluoroacetate)], 501 nM. Under `O=C(CCNCCc1cc(F)cc(F)c1)N(CCNCCc1ccc(O)c2[nH]c(=O)ccc12)C1CCCCC1` [Example 15, N-Cyclohexyl-3-(3,5-difluorophenethylamino)-N-(2-(2-(8-hydroxy-2-oxo-1,2-dihydroquinolin-5-yl)ethylamino)ethyl)propanamide bis(trifluoroacetate)] stands 501 nM; under `O=C(CCNCCc1cc(F)ccc1F)N(CCNCCc1ccc(O)c2[nH]c(=O)ccc12)C1CCCCC1` [Example 17, N-Cyclohexyl-3-(2,5-difluorophenethylamino)-N-(2-(2-(8-hydroxy-2-oxo-1,2-dihydroquinolin-5-yl)ethylamino)ethyl)propanamide bis(trifluoroacetate)], 251 nM.

For the compound `O=C(CCNCCc1cccc(F)c1F)N(CCNCCc1ccc(O)c2[nH]c(=O)ccc12)C1CCCCC1` [Example 18, N-Cyclohexyl-3-(3-difluorophenethylamino)-N-(2-(2-(8-hydroxy-2-oxo-1,2-dihydroquinolin-5-yl)ethylamino)ethyl)propanamide bis(trifluoroacetate)], the IC50 was 398 nM. To `O=CNc1cc(CCNCCN(C(=O)CCNCCc2ccccc2)C2CCCCC2)ccc1O` [Example 21, N-Cyclohexyl-N-(2-(3-formamido-4-hydroxyphenethylamino)ethyl)-3-(phenethylamino)propanamide] belongs 79.4 nM; to `O=C(CCNCCc1ccccc1)N(CCNCCc1ccc(O)c(O)c1)C1CCCCC1` [Example 22, N-Cyclohexyl-N-(2-(3,4-dihydroxyphenethylamino)ethyl)-3-(phenethylamino)propanamide bis(trifluoroacetate)], 200 nM; to `O=C1COc2c(CCNCCN(C(=O)CCNCCc3ccccc3)C3CCCCC3)ccc(O)c2N1` [Example 23, N-Cyclohexyl-N-(2-(2-(5-hydroxy-3-oxo-3,4-dihydro-2H-benzo[b][1,4]oxazin-8-yl)ethylamino)ethyl)-3-(phenethylamino)propanamide bis(trifluoroacetate)], 126 nM. Consider `O=C1COc2c(CCNCCN(C(=O)CCNCCc3ccccc3)C3CCCCCC3)ccc(O)c2N1` [Example 24, N-Cycloheptyl-N-(2-(2-(5-hydroxy-3-oxo-3,4-dihydro-2H-benzo[b][1,4]oxazin-8-yl)ethylamino)ethyl)-3-(phenethylamino)propanamide bis(trifluoroacetate)], for which the IC50 was 50.1 nM. Under `CCCC[C@@H](C)N(CCNCCc1ccc(O)c2c1OCC(=O)N2)C(=O)CCNCCc1ccccc1` [Example 25, (R)—N-(Hexan-2-yl)-N-(2-(2-(5-hydroxy-3-oxo-3,4-dihydro-2H-benzo[b][1,4]oxazin-8-yl)ethylamino)ethyl)-3-(phenethylamino)propanamide bis(trifluoroacetate)] stands 63.1 nM; under `O=C1COc2c(CCNCCN(C(=O)CCNCCc3ccc(Cl)c(Cl)c3)C3CCCCCC3)ccc(O)c2N1` [Example 26, N-Cycloheptyl-3-(3,4-dichlorophenethylamino)-N-(2-(2-(5-hydroxy-3-oxo-3,4-dihydro-2H-benzo[b][1,4]oxazin-8-yl)ethylamino)ethyl)propanamide bis(trifluoroacetate)], 79.4 nM; under `O=C1COc2c(CCNCCN(C(=O)CCNCCc3cccc(Cl)c3)C3CCCCC3)ccc(O)c2N1` [Example 27, 3-(3-Chlorophenethylamino)-N-cyclohexyl-N-(2-(2-(5-hydroxy-3-oxo-3,4-dihydro-2H-benzo[b][1,4]oxazin-8-yl)ethylamino)ethyl)propanamide bis(trifluoroacetate)], 126 nM. `O=C1COc2c(CCNCCN(C(=O)CCNCCc3cccc(Cl)c3Cl)C3CCCCC3)ccc(O)c2N1` [Example 29, N-Cyclohexyl-3-(2,3-dichlorophenethylamino)-N-(2-(2-(5-hydroxy-3-oxo-3,4-dihydro-2H-benzo[b][1,4]oxazin-8-yl)ethylamino)ethyl)propanamide bis(trifluoroacetate)]: the IC50 is 126 nM. Under `O=C1COc2c(CCNCCN(C(=O)CCNCCc3ccc(Cl)c(Cl)c3)C3CCCCC3)ccc(O)c2N1` [Example 30, N-Cyclohexyl-3-(3,4-dichlorophenethylamino)-N-(2-(2-(5-hydroxy-3-oxo-3,4-dihydro-2H-benzo[b][1,4]oxazin-8-yl)ethylamino)ethyl)propanamide bis(trifluoroacetate)] stands 251 nM; under `O=C1COc2c(CCNCCN(C(=O)CCNCCc3ccc(Cl)cc3Cl)C3CCCCC3)ccc(O)c2N1` [Example 31, N-Cyclohexyl-3-(2,4-dichlorophenethylamino)-N-(2-(2-(5-hydroxy-3-oxo-3,4-dihydro-2H-benzo[b][1,4]oxazin-8-yl)ethylamino)ethyl)propanamide bis(trifluoroacetate)], 158 nM; under `O=C1COc2c(CCNCCN(C(=O)CCNCCc3ccc(Cl)cc3)C3CCCCC3)ccc(O)c2N1` [Example 32, 3-(4-Chlorophenethylamino)-N-cyclohexyl-N-(2-(2-(5-hydroxy-3-oxo-3,4-dihydro-2H-benzo[b][1,4]oxazin-8-yl)ethylamino)ethyl)propanamide bis(trifluoroacetate)], 251 nM. Turning to `O=C1COc2c(CCNCCN(C(=O)CCNCCc3cc(F)cc(F)c3)C3CCCCC3)ccc(O)c2N1` [Example 35, N-Cyclohexyl-3-(3,5-difluorophenethylamino)-N-(2-(2-(5-hydroxy-3-oxo-3,4-dihydro-2H-benzo[b][1,4]oxazin-8-yl)ethylamino)ethyl)propanamide bis(trifluoroacetate)], the IC50 was 398 nM. To `O=C1COc2c(CCNCCN(C(=O)CCNCCc3cccc(F)c3F)C3CCCCC3)ccc(O)c2N1` [Example 36, N-Cyclohexyl-3-(2,3-difluorophenethylamino)-N-(2-(2-(5-hydroxy-3-oxo-3,4-dihydro-2H-benzo[b][1,4]oxazin-8-yl)ethylamino)ethyl)propanamide bis(trifluoroacetate)] belongs 398 nM; to `O=C1COc2c(CCNCCN(C(=O)CCNCCc3ccc(F)c(Cl)c3)C3CCCCC3)ccc(O)c2N1` [Example 37, 3-(3-Chloro-4-fluorophenethylamino)-N-cyclohexyl-N-(2-(2-(5-hydroxy-3-oxo-3,4-dihydro-2H-benzo[b][1,4]oxazin-8-yl)ethylamino)ethyl)propanamide bis(trifluoroacetate)], 158 nM. Under `O=C1COc2c(CCNCCN(C(=O)CCNCCc3cc(F)ccc3F)C3CCCCC3)ccc(O)c2N1` [Example 38, N-Cyclohexyl-3-(2,5-difluorophenethylamino)-N-(2-(2-(5-hydroxy-3-oxo-3,4-dihydro-2H-benzo[b][1,4]oxazin-8-yl)ethylamino)ethyl)propanamide bis(trifluoroacetate)] stands 158 nM.
